Columns and labels:
[1] = system: carrageenan-induced foot paw edema; assay: Carrageenan-induced rat foot paw edema assay; type: in vivo, male Wistar rats; conditions: for ED30 of edema inhibition: p.o.
Description: The edema was induced in male Wistar rats (140-150 g) by subcutaneous injection of carrageenan (50 μl of 1% suspension) into the right hind paw. The formed inflammation was measured with plethysmometer (Ugo Basile, type: 7150). The treated paw was placed into the plethysmometer (filled with 0.3% additives in 0.5% saline), the level of the inflammation was detected by the volume of the displaced solution. This volume was compared with the initial preinjection paw volume. Level of the inflammation (ml)=volume after CA treatment (ml)−volume before CA treatment (ml) The inflammation induced in treated group was compared to control group (which was given only vehicle). The sample materials and the solvent were dosed per os via gastro-sonde 1 hour before the CA treatment. The volume of the treated limb was measured at 3h and 5h after CA treatments. The change of the inflammation level was calculated as follows: [formula]

[2] = system: inflammatory mechanical allodynia induced by carrageenan; assay: Carrageenan-induced inflammatory mechanical allodynia (von Frey); type: in vivo, male Sprague-Dawley rats; conditions: 30 mg/kg p.o.
Description: The-threshold of pain of the animals was measured by von Frey apparatus (IITC, type: 1601 C). […] The values were registered in the times of the pick up or raises. During each measurment the threshold was determined at least thrice and the avarage was calculated from the peak values.
Male Sprague-Dawley rats (weighing 250-300 g) were used (n=5-6/group). 100 μl of saline solution of carrageenant (CA) was injected to the middle of the paw. The stimulus threshold was measured after it, and the treatment was completed with gastro-probe per os. The effects of the materials were measured in 30, 60, 90, 120 minutes after the treatments. The effects were compared for control group treatment with vehicle (solution of 2% Tween-80).
The effect was calculated as follows: [formula] where tx=30, 60, 90, 120 min
In the acute pain model the analgesic effects of the valdecoxib and compound of example 1 were considerable with dose of 30 mg/kg p.o. once.

[3] = system: carrageenan and kaolin induced monoarthritis; assay: Carrageenan and kaolin induced monoarthritis model (incapacitance test); type: in vivo, rats; conditions: 10 mg/kg p.o.
Description: The Incapacitance tester is an apparatus for measure the changes of the functional parameters induced of the pain, which can register the bearing on the hind limb, the amount of the moving and the changing of the centre of gravity. Knee-joint of the right-back limb was treated with solution of 100 μl 2% carrageenan and kaolin. During 3-4 hours after the treatment arthritis was emerged in the capsular ligament of the treated limb. This inflammation still exists at 24 hours after the treatment. Because of the pain the animals coddles the treated limbs, thy weign on it less. Change of weight load is measurable with Incapacitance tester device in grams. The incapacitance was calculated as follows: [formula] Analgesic-antiinflammantory compounds could increase the stimulus threshold of the knee-joint, and consequently to improve the functional parameters of the limb. Measure of this can be counted by the decrease of the loading of left leg i.e. in terms of percentage of reversal. [formula] The Incapacitance induced by administration of irritants in left paw was measured at 4 hour after the injection. Afterwards the animals (n=24-32/group) were. orally treated with dose of 10 mg/kg valdecoxib and test compounds. Measurements were done at 1 and 2 hours after the treatments.

[4] = system: carrageenan induced inflammatory hyperalgesia; assay: Carrageenan induced inflammatory hyperalgesia (Randall-Selitto), acute model; type: in vivo, male SPRD rats; conditions: Acut model, 10 mg/kg p.o.
Description: (§1) Edema was induced by injection of Carrageenan (CA) into plantar surface of right hind paw. Male SPRD rats (weighing 140-190 g) were used n=6-8/group). Then the mechanical pain threshold of the inflamed hind paw was determined with an analgesimeter ((Ugo Basile, type: 37215).
(§2) This assay monitors the decrease of the pain threshold, and the time depending changing of the pain by mechanical pain stimulus. Analgesics can increase the pain threshold of the inflamed hinds and this effect is in terms of percentage of reversal.
(§3) Untreated right hind paw was compressed with a progressively increasing pressure. The pressure was recorded (in grams) when the animal first vocalized or made a vigorous attempt to remove the paw. It was determined to baseline threshold of the untreated paw. (average: 80-110 g). After it the animals were treated with carrageenan. After the treatment the edema and the threshold were checked in a given times. […] (Average of inflammation induced pain threshold was 20-25 g, this means 65-80% decrease related to the baseline.)
1 hour after the CA injection (100 μl of 2% solution) the animals were treated with test compounds and valdecoxib (10-10 mg/kg p.o.). […]
(§4) The chronic phase of the inflammantion and the decreasing of the threshold were induced by higher dose of CA. Inflammation induced threshold decreasing was measured 24 hours after the CA injection (150 μl of 2% solution). ) After it the animals were treated with test compounds and valdecoxib (30-30 mg/kg p.o.). Change in the threshold was checked at 1 h, 2 h, and 3 h following drug administration. In both model used control groups were treated orally only with solvents at the time of treatments. In both protocol the effects of the test compounds were calculated in percentage reversal of mechanical hiperalgesia: [formula] • T3h: In acute model, the threshold in the control group at 3 h after the CA injection (in gram) • T24h: In chronic model, the threshold in the control group at 24 h after the CA injection (in gram) • T0h: The threshold before the CA injection (in gram) • TXh In acute model, at 3h after the CA injection • TXh=In chronic model, at 25 h, 26 h, 27 h after the CA injection

[5] = system: carrageenan induced inflammatory hyperalgesia; assay: Carrageenan induced inflammatory hyperalgesia (Randall-Selitto), chronic model; type: in vivo, male SPRD rats; conditions: 30 mg/kg p.o.
Description: as §1, §2, §3, §4

isolated rabbit heart = assay: Cardiac effects on the isolated rabbit heart (Langendorff, coronary flow); set-up: species or system New Zealand white rabbits; conditions: 1, 3 and 10 μM, 4-4 hearts
Description: New Zealand white rabbits weighing 1.5-2 kg were used. The animals were exsanguinated and after thoracotomy the hearts were excised and mounted on a Langendorff-type perfusion apparatus. The hearts were perfused via the aorta with oxigenated, thermostated (37° C.) Krebs solution. A constant perfusion pressure of 80 cmH2O was applied. The test compounds were dissolved in the perfusion solution to obtain the requested concentrations.
The basic value of coronary flow was determined. Afterwards the small amount of compounds were added to perfusion liquid and the perfusion was measured for 30 minutes at every 10 minutes. Afterwards 30 minutes perfusion was performed without compound and the measure was repeated with the medium and high amount of compounds.
The effects of same concentration of valdecoxib and compound of example 1 were investigated in 4-4 hearts (1, 3 and 10 μM). Valdecoxib had no effect in either concentration. It can clearly be shown that the coronary flow was increased dose dependently. This effect is advantageous in practice of clinical therapy, because the painful arthritic and degenerative joint and bone deformations are emerged rather in old age, when diseases of the vascular system are also frequently encountered, which can conduce to disorder of vascular bed of the heart.

## Cc1onc(-c2ccccc2)c1-c1ccc(S(N)(=O)=O)cc1 [valdecoxib, reference compound]
[1]; 0.1 mg/kg p.o., 4 hours after treatment
  edema inhibition effect %: 29.4%
[1]; 0.1 mg/kg p.o., 6 hours after treatment
  edema inhibition effect %: 25.8%
[1]; 0.3 mg/kg p.o., 4 hours after treatment
  edema inhibition effect %: 34.1%
[1]; 0.3 mg/kg p.o., 6 hours after treatment
  edema inhibition effect %: 27.3%
[1]; 1.0 mg/kg p.o., 4 hours after treatment
  edema inhibition effect %: 40.1%
[1]; 1.0 mg/kg p.o., 6 hours after treatment
  edema inhibition effect %: 37.8%
[1]; 3.0 mg/kg p.o., 4 hours after treatment
  edema inhibition effect %: 47.7%
[1]; 3.0 mg/kg p.o., 6 hours after treatment
  edema inhibition effect %: 45.8%
[1]; 4 hours after treatment
  ED30 of edema inhibition: 0.2 mg/kg
[1]; 6 hours after treatment
  ED30 of edema inhibition: 0.3 mg/kg
[2]; 30 min.
  Analgesic effect in % after p.o. treatment: 69.2%
[2]; 1 hour
  Analgesic effect in % after p.o. treatment: 60.0%
[2]; 1.5 hour
  Analgesic effect in % after p.o. treatment: 57.7%
[2]; 2 hours
  Analgesic effect in % after p.o. treatment: 47.8%
[3]; 1 hour
  Analgesic effect (% reversal) after p.o. treatment: 52.1 % reversal
[3]; 2 hours
  Analgesic effect (% reversal) after p.o. treatment: 62.4 % reversal
[4]; 2 hours
  Analgesic effect in % after p.o. treatment: 50.5%
[4]; 3 hours
  Analgesic effect in % after p.o. treatment: 59.9%
[4]; 4 hours
  Analgesic effect in % after p.o. treatment: 33.2%
[5]; 1 hour
  Analgesic effect in % after p.o. treatment: 24.2%
[5]; 2 hours
  Analgesic effect in % after p.o. treatment: 36.9%
[5]; 3 hours
  Analgesic effect in % after p.o. treatment: 19.9%
Isolated rabbit heart
  effect on coronary flow (in words): no effect
